Experimental findings from ChEMBL document CHEMBL1201862, “PubChem BioAssay data set” (2004) are described below.

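Grown in 96-well plates, cells were treated for 48 hours with each compound at five concentrations. Insufficient inhibition: endpoint recorded as highest concentration tested. GI50 marks 50% less growth.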 Active and inactive are the calls of the source. Cut-off read from the data, not from the text of the source: active = GI50 up to about 1.1 µM and inactive = higher.

Some test systems named below: DLD-1; DU-145; HCT-15; HL-60; HOP-18; HOP-92; Hs-578T; LOX IMVI; M19-MEL; MOLT-4; OVCAR-4; OVCAR-5; PC-3; RPMI-8226; SK-MEL-5; SK-OV-3; SNB-19; SNB-75; SR; TK-10.
Holding throughout (assay): NCI-60 cell line screen, 48 h

As for `O=C1N[C@@H]([C@H]2CC[C@H](Cl)CN2)C(=O)N[C@H]1[C@H]1CC[C@H](Cl)CN1`, the GI50 with DLD-1 was 4920 nM (inactive); in the test with DU-145, 108 nM (active); in the test with HCT-15 it was 1140 nM; in the test with HL-60, 100 nM (active); in the test on HOP-18 it was 5860 nM (inactive); in the test with HOP-92 it was 757 nM (active). Moreover, the GI50 in the test on Hs-578T was 5060 nM (inactive); with LOX IMVI it was 237 nM (active); in the test on M19-MEL, 2470 nM (inactive); in the test on MOLT-4, 103 nM (active); with OVCAR-4, 2770 nM (inactive); with OVCAR-5 it was 1250 nM (inactive). Further, the GI50 is 804 nM (active) in the test with PC-3; 1320 nM (inactive) with RPMI-8226; 1210 nM (inactive) in the test with SK-MEL-5; 836 nM (active) in the test with SK-OV-3; 1370 nM (inactive) in the test with SNB-19; 507 nM (active) in the test with SNB-75. In addition, the GI50 was 100 nM (active) in the test on SR and 4420 nM (inactive) in the test with TK-10.
